Key:
[1] = test system: HIF transcriptional activity; assay: Luciferase reporter assay (FLuc/RLuc) in hypoxic Hep3B-c1 cells; type: cell-based; settings: Homo sapiens, FLuc/RLuc ratio, 1% O2, 24 hours
Method: The NCI CellMiner database contains expression data on 25,698 mRNAs in 60 human cancer cell lines that were exposed to 21,770 chemical compounds (Reinhold W C, et. al., Cancer Res. 2012; 72(14):3499-3511). The CellMiner database was interrogated for compounds that induced changes in gene expression highly correlated with those induced by acriflavine, but would be structurally unrelated to acriflavine. Compounds that satisfied these criteria were analyzed in Hep3B-c1 cells (Zhang H. et. al., Proc Natl Acad Sci USA. 2008; 105(50):19579-19586), which are stably transfected with: HIF dependent reporter plasmid p2.1, in which firefly luciferase (FLuc) coding sequences are located downstream from a hypoxia response element (HRE) and a basal SV40 promoter; and control reporter pSVR, in which Renilla luciferase (RLuc) coding sequences are downstream of the basal SV40 promoter only (FIG. 1A).
Hep3B-c1 cells (Zhang 2008), which are stably co-transfected with reporter plasmids p2.1, a hypoxia-inducible firefly luciferase reporter gene containing a hypoxia response element (HRE), and pSVR, a constitutively expressed Renilla luciferase reporter gene, were seeded on 24-well plates. Cells were treated with compounds the following day and exposed to 20% or 1% O2 for 24 hours. For transient transfection, cells were seeded, transfected with the listed plasmids and compounds, and exposed to 20% or 1% O2 for 24 hours. FLuc/RLuc ratios were determined using the Dual Luciferase Reporter Assay System (Promega) and the VICTOR Nivo plate reader (PerkinElmer).

Hepa1-6 mouse HCC cells = assay: RT-qPCR of hypoxia-induced mRNAs in Hepa1-6 cells; type: cell-based; settings: hypoxic Hepa1-6 cells
Method: Effects of 32-134D on Hepa1-6 mouse HCC cells and tumors. […] Thus, 32-134D inhibits the ability of hypoxic HCC cells to increase O2 delivery by stimulating angiogenesis (Angpt14, Pgf, Vegfa) or […] anaerobic metabolism by increasing glycolytic flux (Glut1, Pgk1, Ldha).
(§1) Human Hep3B and mouse Hepa1-6 cells were purchased from ATCC and grown in high-glucose (4.5 mg/ml) Dulbecco's modified Eagle's medium supplemented with 10% (vol/vol) fetal bovine serum and […] at 37° C. in a 5% CO2/95% air incubator (20% O2). Human cell line identity was authenticated by analysis of short tandem repeats, and all cell lines were maintained mycoplasma free, using PCR-based assays conducted at the Johns Hopkins University Genetic Resources Core Facility. Cells were subjected to hypoxia in a controlled atmosphere chamber (PLAS Labs) with ambient gas mixture containing 1% O2 and 5% CO2.
RNA was extracted using TRIzol Reagent (ThermoFisher). Quantitative Real-time PCR was conducted using SYBR Green PCR Master Mix (BioRad) and reactions were run using the BioRad thermal cycler (BioRad). The mRNA expression of target genes was normalized to the expression of 18S rRNA and the fold change (FC) was calculated based on the threshold cycle (Ct) as […]

HIF target genes = assay: RT-qPCR of HIF target gene expression in Hep3B cells; type: cell-based, human
Method: Based on hit compound 11-88, a number of analogs were prepared in which either halogen substitutions to the indole groups were altered or the central thiazole was replaced by imidazole, isoxazole, oxadiazole, oxazole, pyrazinone, pyridazine, pyrazine, pyrazole, pyridine, thiadiazole, triazine, or triazole. […] The bis-bromoindole thiazole 32-134D and the bis-indole thiadiazole 33-063 (FIGS. 1B and 1C) were further characterized with respect to endogenous HIF target gene expression in Hep3B cells. […] For comparison, we tested the effect of PT2385, which inhibited EPO, NDRG1, ANGPTL4, and VEGFA expression but had no effect on CA9, which is consistent with its HIF-2-selective mechanism of action (Wallace E M et al., Cancer Res. 2016; 76(18):5491-5500). None of the compounds had any effect on RPL13A expression, which is neither hypoxia-induced nor HIF-regulated (FIG. 3).
as §1
RNA was extracted using TRIzol Reagent (ThermoFisher). Quantitative Real-time PCR was conducted using SYBR Green PCR Master Mix (BioRad) and reactions were run using the BioRad thermal cycler (BioRad). The mRNA expression of target genes was normalized to the expression of 18S rRNA and the fold change (FC) was calculated based on the threshold cycle (Ct) as
FC=2^−Δ(ΔCt) where ΔCt=Cttarget gene−Ct18S rRNA and Δ(ΔCt)=ΔCttreatment−ΔCtcontrol.

advanced HCC = advanced HCC patients; cited from earlier work

Row | IC50 [1] [µM] | SMILES | also measured
1 | 2.86 | c1ccc2c(-c3csc(-c4c[nH]c5ccccc45)n3)c[nH]c2c1 [Compound 33-057A] | 
2 | 2.07 | c1ccc2c(-c3cc(-c4c[nH]c5ccccc45)[nH]n3)c[nH]c2c1 [Compound 35-092] | 
3 | 2.7 | Brc1ccc2[nH]cc(-c3nnc(-c4c[nH]c5ccccc45)o3)c2c1 [Compound 33-093B] | 
4 | 1.83 | c1cc(-c2c[nH]c3ccccc23)nc(-c2c[nH]c3ccccc23)c1 [Compound 34-090] | 
5 | 2.69 | Brc1ccc2c(-c3nc(-c4c[nH]c5c(Br)cccc45)cs3)c[nH]c2c1 [Compound 13-03] | 
6 | 2.48 | c1ccc2c(-c3nc(-c4cnc5ncccn45)cs3)c[nH]c2c1 [Compound 12-93F] | 
7 | 2.37 | c1ccc2c(-c3ccnc(-c4c[nH]c5ccccc45)n3)c[nH]c2c1 [Compound 35-020] | 
8 | 2.51 | c1ccc2c(-c3nnc(-c4c[nH]c5ccccc45)o3)c[nH]c2c1 [Compound 33-087] | 
9 | 3.09 | Brc1ccc2c(-c3csc(-c4c[nH]c5ccccc45)n3)c[nH]c2c1 [Compound 12-58] | 
10 | 2.87 | Brc1ccc2[nH]cc(-c3nnc(-c4c[nH]c5ccc(Br)cc45)o3)c2c1 [Compound 33-103B] | 
11 | 3.24 | O=c1[nH]cc(-c2c[nH]c3ccccc23)nc1-c1c[nH]c2ccccc12 [Compound 33-123] | 
12 |  | CS(=O)(=O)c1ccc(Oc2cc(F)cc(C#N)c2)c2c1[C@H](O)C(F)(F)C2 [PT2385, reference compound] | expression of Pgk1 mRNA (Hepa1-6 mouse HCC cells): no effect; Angpt14, Pgf, and Vegfa mRNA expression (Hepa1-6 mouse HCC cells; compared with 33-063 and 32-134D): less potent inhibitor; CA9 expression (HIF target genes): no effect; EPO, NDRG1, ANGPTL4 and VEGFA expression (HIF target genes): inhibited
13 | 2.9 | Brc1ccc2c(-c3nc(-c4c[nH]c5ccc(Br)cc45)cs3)c[nH]c2c1 [Compound 11-88] | 
14 | 2.3 | Brc1ccc2c(-c3csc(-c4c[nH]c5cc(Br)ccc45)n3)c[nH]c2c1 [Compound 32-134C] | 
15 | 2.2 | c1ccc2c(-c3nsc(-c4c[nH]c5ccccc45)n3)c[nH]c2c1 [Compound 33-063, 3,5-di(1H-indol-3-yl)-1,2,4-thiadiazole] | hypoxia-induced expression of mRNA encoding Angpt14, Pgf, Vegfa and Pgk1 (Hepa1-6 mouse HCC cells): significant dose-dependent inhibition; hypoxia-induced expression of HIF target genes CA9, ANGPTL4, VEGFA, NDRG1 and EPO (HIF target genes): inhibited
16 | 2.92 | Brc1ccc2[nH]cc(-c3csc(-c4c[nH]c5ccccc45)n3)c2c1 [Compound 11-147B] | 
17 | 3.08 | Clc1ccc2c(-c3nc(-c4c[nH]c5cc(Br)ccc45)cs3)c[nH]c2c1 [Compound 12-147B] | 
18 | 2.6 | Fc1cccc2c(-c3nc(-c4c[nH]c5cc(Br)ccc45)cs3)c[nH]c12 [Compound 12-143] | 
19 | 2.4 | O=c1[nH]c2ccc(-c3csc(-c4c[nH]c5ccccc45)n3)cc2o1 [Compound 12-93A] | 
20 | 2.8 | Brc1ccc2c(-c3nnc(-c4c[nH]c5cc(Br)ccc45)o3)c[nH]c2c1 [Compound 33-103C] | 
21 | 2.31 | Brc1ccc2c(-c3nc(-c4cnc5ncccn45)cs3)c[nH]c2c1 [Compound 12-70C] | 
22 | 2.07 | Brc1cccc2c(-c3csc(-c4c[nH]c5c(Br)cccc45)n3)c[nH]c12 [Compound 13-01] | 
23 | 2.04 | Clc1ncc(-c2c[nH]c3ccccc23)nc1-c1c[nH]c2ccccc12 [Compound 34-146] | 
24 | 1.94 | c1ccc2c(-c3cc(-c4c[nH]c5ccccc45)on3)c[nH]c2c1 [Compound 35-140] | 
25 | 1.27 | c1ccc2c(-c3cncc(-c4c[nH]c5ccccc45)n3)c[nH]c2c1 [Compound 34-110] | 
26 |  | CNC(=O)c1cc(Oc2ccc(NC(=O)Nc3ccc(Cl)c(C(F)(F)F)c3)cc2)ccn1 [sorafenib] | survival benefit (advanced HCC): 2-3 months
27 | 2.52 | Fc1ccc2c(-c3nc(-c4c[nH]c5cc(Br)ccc45)cs3)c[nH]c2c1 [Compound 12-147A] | 

From US20250115595A1, “INHIBITORS OF HYPOXIA-INDUCIBLE FACTORS” (The Johns Hopkins University, priority 2021, published 2025)
